# From patent US20250378953A1, “ORGAN DIGITAL TWIN SYSTEMS AND METHODS FOR CREATING AND USING SUCH SYSTEMS” (Yale University, priority 2022, published 2025)
# Where two headings read alike, the source gives them in different places.
# Tested on: porcine kidney
# From the text: For the ex vivo normothermic perfusion of kidneys, data pertaining to the hemodynamics of the kidney were collected and monitored: kidney mass, urine output, arterial flow, arterial pressure, pump speed, hematocrit, and arterial oxygen saturation. To accomplish this, ZP-50N digital force gauges by Baoshishan were used to measure kidney mass and urine output; a Medtronic Bio-console device to measure flow, pressure, and pump speed; and a Medtronic Bio-trend device to measure hematocrit and oxygen saturation.
# Data collection from these sensors was standardized at a rate of 0.2 Hz (approximately a data point every five seconds) and integrated via an open-source software written in Python. […] The act of collecting data from each sensor simultaneously presented a unique challenge in that a typical computer program is sequential in its execution, meaning that data collection from one sensor should not be able to occur until collection from another sensor is finished. Furthermore, the runtime complexity of the code block associated with each sensor meant that data collection from one sensor could potentially interfere with the collection from another, and vice-versa. To circumvent these issues, the code blocks for each sensor were run in separate threads using the Python threading library. This allowed each code block to be executed simultaneously in parallel (as opposed to sequentially in series), meaning data collection from one sensor was independent of data collection from all other sensors. After the data was extracted, the code block for each sensor transformed the data string by removing superfluous characters and converting the pertinent data into a float format. To upload the transformed data to the Azure cloud database the sys, platform, and pyodbc libraries were used to communicate with the edge device and establish a database connection using an SQL driver.
# The “Blood gas data upload” feature allows one to manually input data collected from perfusate analysis assays. For our perfusion experiment, CG8+ and Renal Function Panel cartridges were used with iStat and Piccolo devices, respectively; however, the software can easily be modified to accommodate other perfusate assays.
# Histamine was administered at two different time-points during the perfusion.
smiles,measurement,setting,value
NCCc1c[nH]cn1 [histamine],arterial flow after histamine,40 mg histamine on the arterial side at 240 minutes of perfusion,Flow immediately stopped
same,arterial flow after histamine,100 mg histamine on the arterial side at 90 minutes of perfusion,immediate halt of flow
same,time until flow normalized,"after 40 mg histamine at 240 minutes, pump RPM slowly increased to 1900, no heparin",30 min
same,time until flow increased and arterial pressure normalized,"after 100 mg histamine at 90 min, heparin at 120 minute, pump RPM 2000",≤ 60 min
same,arterial pressure while flow slowly returned,"after 100 mg histamine at 90 min, 20k units heparin added at 120 minute, pump RPM increased to 2000, starting arterial pressure 15 mmHg",40-60 mmHg
same,kidney weight after flow and pressures normalized,"after first histamine administration, weight before histamine approximately 0.26 Kg",0.27 to 0.28 kg
same,kidney weight after histamine (manual recordings),"after histamine at 90 minutes, weight before approximately 0.26 Kg",approximately 0.24 Kg
same,arterial pressure immediately after histamine,arterial administration of histamine,immediately increased
same,urine production (qualitative observation),first histamine administration at 90 minutes,initiate after the first histamine administration
